In PMC8037182, “Solvothermal Synthesis of Multiple Dihydropyrimidinones at a Time as Inhibitors of Eg5” (Molecules, 2021):

Tests used:
[1] = system: Hela cell line; test: Cytotoxicity MTS assay, Hela cell line; format: cell-based; details: for OD490 value, Mean / OD490 value, Well 1 / OD490 value, Well 2 / OD490 value, Well 3: Hela cell line, MTS
Method: (§1) The positive compounds (IC50 < 100 μM) obtained from the primary Eg5 motor protein ATPase assay were tested for antiproliferative activity in vitro against Caco-2 cell line, Hela cell line, L929 cell line and T24 cell line by performing MTS assay. Cells were introduced into 96-well plates at a density of 1000 cells per well. After 24 h incubation, the cells were exposed with compounds at final concentrations ranging from 0.5 to 100 µM for 24 h. DMSO was used at a final concentration of 0.025% as blank control, monastrol was used as the positive control. Then 20 µL (CellTiter 96® AQueous One Solution Promega, Madison, WI, USA) reagent was added in each well. After 2 h at 37 °C in a 80% humidified, 5% CO2 atmosphere, the absorbance at 490 nm was recorded using a microplate reader (BIO-RAD iMark^TM). The results were obtained in three independent duplicate experiments. The primary data were shown in Supplementary Materials Tables S4–S7. The IC50 values for these compounds were calculated from a non-linear regression graph plotted between the percentage of cell viability and concentration with SPSS17.0 software.

[2] = system: L929 cell line; test: Cytotoxicity MTS assay, L929 cell line; format: cell-based; details: for OD490 values, Mean / OD490 values, Well 1 / OD490 values, Well 2 / OD490 values, Well 3: L929 cell line
Method: as §1

SMILES: CCOC(=O)c1[nH]c(C2NC(=O)NC(C)=C2C(=O)Nc2ccccc2C)c(C(=O)OC)c1C (centres unmarked) [D4]
- OD490 value, Mean ([1]; 0.5μM, first assay): 2.5619
- OD490 value, Well 1 ([1]; 0.5μM, first assay): 2.3169
- OD490 value, Well 2 ([1]; 0.5μM, first assay): 2.6787
- OD490 value, Well 3 ([1]; 0.5μM, first assay): 2.6902
- OD490 value, Mean ([1]; 0.5μM, second assay): 2.6585
- OD490 value, Well 1 ([1]; 0.5μM, second assay): 2.7756
- OD490 value, Well 2 ([1]; 0.5μM, second assay): 2.2036
- OD490 value, Well 3 ([1]; 0.5μM, second assay): 2.9963
- OD490 value, Mean ([1]; 0.5μM, third assay): 2.6298
- OD490 value, Well 1 ([1]; 0.5μM, third assay): 2.6541
- OD490 value, Well 2 ([1]; 0.5μM, third assay): 2.5689
- OD490 value, Well 3 ([1]; 0.5μM, third assay): 2.6665
- OD490 value, Mean ([1]; 1μM, first assay): 2.4999
- OD490 value, Well 1 ([1]; 1μM, first assay): 2.4427
- OD490 value, Well 2 ([1]; 1μM, first assay): 2.5466
- OD490 value, Well 3 ([1]; 1μM, first assay): 2.5103
- OD490 value, Mean ([1]; 1μM, second assay): 2.6707
- OD490 value, Well 1 ([1]; 1μM, second assay): 2.6654
- OD490 value, Well 2 ([1]; 1μM, second assay): 2.6879
- OD490 value, Well 3 ([1]; 1μM, second assay): 2.6588
- OD490 value, Mean ([1]; 1μM, third assay): 2.5654
- OD490 value, Well 1 ([1]; 1μM, third assay): 2.6540
- OD490 value, Well 2 ([1]; 1μM, third assay): 2.5421
- OD490 value, Well 3 ([1]; 1μM, third assay): 2.5000
- OD490 value, Mean ([1]; 10μM, first assay): 2.7063
- OD490 value, Well 1 ([1]; 10μM, first assay): 2.6331
- OD490 value, Well 2 ([1]; 10μM, first assay): 2.7562
- OD490 value, Well 3 ([1]; 10μM, first assay): 2.7295
- OD490 value, Mean ([1]; 10μM, second assay): 2.7726
- OD490 value, Well 1 ([1]; 10μM, second assay): 2.6985
- OD490 value, Well 2 ([1]; 10μM, second assay): 2.7856
- OD490 value, Well 3 ([1]; 10μM, second assay): 2.8336
- OD490 value, Mean ([1]; 10μM, third assay): 2.5863
- OD490 value, Well 1 ([1]; 10μM, third assay): 2.3545
- OD490 value, Well 2 ([1]; 10μM, third assay): 2.7454
- OD490 value, Well 3 ([1]; 10μM, third assay): 2.6589
- OD490 value, Mean ([1]; 25μM, first assay): 2.5844
- OD490 value, Well 1 ([1]; 25μM, first assay): 2.5014
- OD490 value, Well 2 ([1]; 25μM, first assay): 2.5977
- OD490 value, Well 3 ([1]; 25μM, first assay): 2.6541
- OD490 value, Mean ([1]; 25μM, second assay): 2.6351
- OD490 value, Well 1 ([1]; 25μM, second assay): 2.6354
- OD490 value, Well 2 ([1]; 25μM, second assay): 2.6289
- OD490 value, Well 3 ([1]; 25μM, second assay): 2.6410
- OD490 value, Mean ([1]; 25μM, third assay): 2.6063
- OD490 value, Well 1 ([1]; 25μM, third assay): 2.5658
- OD490 value, Well 2 ([1]; 25μM, third assay): 2.6542
- OD490 value, Well 3 ([1]; 25μM, third assay): 2.5988
- OD490 value, Mean ([1]; 50μM, first assay): 2.4897
- OD490 value, Well 1 ([1]; 50μM, first assay): 2.2013
- OD490 value, Well 2 ([1]; 50μM, first assay): 2.5633
- OD490 value, Well 3 ([1]; 50μM, first assay): 2.7046
- OD490 value, Mean ([1]; 50μM, second assay): 2.4794
- OD490 value, Well 1 ([1]; 50μM, second assay): 2.5532
- OD490 value, Well 2 ([1]; 50μM, second assay): 2.4198
- OD490 value, Well 3 ([1]; 50μM, second assay): 2.4652
- OD490 value, Mean ([1]; 50μM, third assay): 2.5366
- OD490 value, Well 1 ([1]; 50μM, third assay): 2.4650
- OD490 value, Well 2 ([1]; 50μM, third assay): 2.5462
- OD490 value, Well 3 ([1]; 50μM, third assay): 2.5985
- OD490 value, Mean ([1]; 100μM, first assay): 1.9103
- OD490 value, Well 1 ([1]; 100μM, first assay): 1.9024
- OD490 value, Well 2 ([1]; 100μM, first assay): 1.9524
- OD490 value, Well 3 ([1]; 100μM, first assay): 1.8761
- OD490 value, Mean ([1]; 100μM, second assay): 2.0041
- OD490 value, Well 1 ([1]; 100μM, second assay): 2.0124
- OD490 value, Well 2 ([1]; 100μM, second assay): 2.0036
- OD490 value, Well 3 ([1]; 100μM, second assay): 1.9963
- OD490 value, Mean ([1]; 100μM, third assay): 1.9351
- OD490 value, Well 1 ([1]; 100μM, third assay): 1.8989
- OD490 value, Well 2 ([1]; 100μM, third assay): 1.9478
- OD490 value, Well 3 ([1]; 100μM, third assay): 1.9587
- IC50 ([1]; MTS assay, 24 h exposure): > 150 µM
- OD490 values, Mean ([2]; 0.5μM, first assay): 1.2390
- OD490 values, Well 1 ([2]; 0.5μM, first assay): 1.2664
- OD490 values, Well 2 ([2]; 0.5μM, first assay): 1.2769
- OD490 values, Well 3 ([2]; 0.5μM, first assay): 1.1737
- OD490 values, Mean ([2]; 0.5μM, second assay): 1.6699
- OD490 values, Well 1 ([2]; 0.5μM, second assay): 1.5847
- OD490 values, Well 2 ([2]; 0.5μM, second assay): 1.7925
- OD490 values, Well 3 ([2]; 0.5μM, second assay): 1.6324
- OD490 values, Mean ([2]; 0.5μM, third assay): 1.6193
- OD490 values, Well 1 ([2]; 0.5μM, third assay): 1.5741
- OD490 values, Well 2 ([2]; 0.5μM, third assay): 1.5987
- OD490 values, Well 3 ([2]; 0.5μM, third assay): 1.6852
- OD490 values, Mean ([2]; 1μM, first assay): 1.1804
- OD490 values, Well 1 ([2]; 1μM, first assay): 1.2290
- OD490 values, Well 2 ([2]; 1μM, first assay): 1.2817
- OD490 values, Well 3 ([2]; 1μM, first assay): 1.0306
- OD490 values, Mean ([2]; 1μM, second assay): 1.6792
- OD490 values, Well 1 ([2]; 1μM, second assay): 1.5848
- OD490 values, Well 2 ([2]; 1μM, second assay): 1.6985
- OD490 values, Well 3 ([2]; 1μM, second assay): 1.7542
- OD490 values, Mean ([2]; 1μM, third assay): 1.5459
- OD490 values, Well 1 ([2]; 1μM, third assay): 1.5698
- OD490 values, Well 2 ([2]; 1μM, third assay): 1.5478
- OD490 values, Well 3 ([2]; 1μM, third assay): 1.5202
- OD490 values, Mean ([2]; 10μM, first assay): 1.0446
- OD490 values, Well 1 ([2]; 10μM, first assay): 1.1408
- OD490 values, Well 2 ([2]; 10μM, first assay): 0.9532
- OD490 values, Well 3 ([2]; 10μM, first assay): 1.0397
- OD490 values, Mean ([2]; 10μM, second assay): 1.6098
- OD490 values, Well 1 ([2]; 10μM, second assay): 1.5562
- OD490 values, Well 2 ([2]; 10μM, second assay): 1.5879
- OD490 values, Well 3 ([2]; 10μM, second assay): 1.6852
- OD490 values, Mean ([2]; 10μM, third assay): 1.5291
- OD490 values, Well 1 ([2]; 10μM, third assay): 1.5364
- OD490 values, Well 2 ([2]; 10μM, third assay): 1.5879
- OD490 values, Well 3 ([2]; 10μM, third assay): 1.4630
- OD490 values, Mean ([2]; 25μM, first assay): 0.9627
- OD490 values, Well 1 ([2]; 25μM, first assay): 0.8216
- OD490 values, Well 2 ([2]; 25μM, first assay): 0.8395
- OD490 values, Well 3 ([2]; 25μM, first assay): 1.2269
- OD490 values, Mean ([2]; 25μM, second assay): 1.4236
- OD490 values, Well 1 ([2]; 25μM, second assay): 1.4545
- OD490 values, Well 2 ([2]; 25μM, second assay): 1.4879
- OD490 values, Well 3 ([2]; 25μM, second assay): 1.3285
- OD490 values, Mean ([2]; 25μM, third assay): 1.2968
- OD490 values, Well 1 ([2]; 25μM, third assay): 1.3325
- OD490 values, Well 2 ([2]; 25μM, third assay): 1.3214
- OD490 values, Well 3 ([2]; 25μM, third assay): 1.2365
- OD490 values, Mean ([2]; 50μM, first assay): 0.9261
- OD490 values, Well 1 ([2]; 50μM, first assay): 0.8106
- OD490 values, Well 2 ([2]; 50μM, first assay): 0.9635
- OD490 values, Well 3 ([2]; 50μM, first assay): 1.0043
- OD490 values, Mean ([2]; 50μM, second assay): 1.2976
- OD490 values, Well 1 ([2]; 50μM, second assay): 1.3201
- OD490 values, Well 2 ([2]; 50μM, second assay): 1.2240
- OD490 values, Well 3 ([2]; 50μM, second assay): 1.3487
- OD490 values, Mean ([2]; 50μM, third assay): 1.2105
- OD490 values, Well 1 ([2]; 50μM, third assay): 1.1145
- OD490 values, Well 2 ([2]; 50μM, third assay): 1.2301
- OD490 values, Well 3 ([2]; 50μM, third assay): 1.2869
- OD490 values, Mean ([2]; 100μM, first assay): 0.7075
- OD490 values, Well 1 ([2]; 100μM, first assay): 0.8384
- OD490 values, Well 2 ([2]; 100μM, first assay): 0.6461
- OD490 values, Well 3 ([2]; 100μM, first assay): 0.6379
- OD490 values, Mean ([2]; 100μM, second assay): 0.8731
- OD490 values, Well 1 ([2]; 100μM, second assay): 0.9062
- OD490 values, Well 2 ([2]; 100μM, second assay): 0.8662
- OD490 values, Well 3 ([2]; 100μM, second assay): 0.8469
- OD490 values, Mean ([2]; 100μM, third assay): 0.8397
- OD490 values, Well 1 ([2]; 100μM, third assay): 0.8652
- OD490 values, Well 2 ([2]; 100μM, third assay): 0.7214
- OD490 values, Well 3 ([2]; 100μM, third assay): 0.9325
- IC50 ([2]; MTS assay, 24 h exposure, ordinary fibroblast, not cancer cells): 94.5 µM
